# Test results taken from US6521628B1, “Fungicidal mixtures” (BASF Aktiengesellschaft, priority 1999, dated 2003).
# Read-outs that look alike come from different tables or passages of the source.
# Tests used:
# Format in all cases: in vivo
# Puccinia recondita = test: Greenhouse test, 4 day residual, Puccinia recondita on wheat (Examples 7, 9, 12, 15); conditions: 96 h, read-out: Observed Efficacy; for pest or weed control at 0.4 ppm: dose rate 0.4 ppm; for pest or weed control at 2 ppm: dose rate 2 ppm; for pest or weed control at 10 ppm: dose rate 10 ppm; for pest or weed control at 50 ppm: dose rate 50 ppm; for pest or weed control at 4 ppm: dose rate 4 ppm; for pest or weed control at 16 ppm: dose rate 16 ppm
# Experimental: (§1) The trials are carried out under greenhouse (Examples 1 to 18) or field conditions (Example 19) in residual or curative applications. The fungicides are applied in single treatments, or in a combination comprising a benzophenone of formula I and a compound selected from the classes (A) through (E) as defined above. The compounds are applied in form of an aqueous spray mix obtained from concentrated formulation or the technical material.
# (§2) 1. Seed is planted in 6 cm diameter plastic pots and maintained in the greenhouse.
# (§3) 2. When the primary leaf is fully expanded in the case of cereals or several leaves are present in the case of dicots, formulated test compounds are sprayed with a three nozzle overhead fungicide sprayer to near run-off. Alternatively, a single nozzle overhead track sprayer is used for application of the compounds to cereals at a rate of 200 l/ha. Plants are then allowed to air-dry.
# (§4) 3. Inoculation precedes treatment in the case of curative evaluations and follows treatment in case of residual evaluations.
# (§5) For inoculation of non-powdery mildew diseases, an aqueous spore suspension of the pathogen is applied to the plant and the plants are kept 1-2 days in a moist infection chamber before being returned to the greenhouse where they are maintained by bottom watering.
# (§6) 4. Disease on the foliage as percent leaf area with disease symptoms/signs is evaluated about 7 days after inoculation. In the case of wheat, the tips and bases of the leaves are excluded from the evaluation. [formula]
# (§7) 1. Technical compounds are formulated in a solvent/surfactant system consisting of 5% acetone and 0.05% Tween 20 in deionized water. Compounds are dissolved in acetone prior to addition of the water; the Tween 20 can be added through either the acetone or the water. Dilutions are made using the solvent/surfactant system. Formulated compounds are prepared using deionized water.
# (§8) Assessments of the diseases took place at the indicated day after the application of the compounds. Per cent infected leaf area infected was evaluated. The efficacy of the compounds/compounds mixtures to control the diseases was calculated by using the formula given above under item 4: […]
# (§9) Synergy was calculated using the % disease control values of specific treatments for the two COLBY formula given hereinabove
# Fungicidal Efficacy of the Mixture of BP-4+Other Fungicides (4 Day Residual) Against Puccinia recondita on Wheat
# Fungicidal Efficacy of the Mixture of BP4+Other Fungicides (4 Day Residual) Against Puccinia recondita on Wheat
# Fungicidal Efficacy of the Mixture of BP-4+Myclobutanil (4 Day Residual) Against Puccinia recondita on Wheat
# Leptosphaeria nodorum = test: Greenhouse test, 4 day residual, Leptosphaeria nodorum on wheat (Examples 8, 10); conditions: Parastagonospora nodorum, 96 h, single compound, read-out: Observed Efficacy; for pest or weed control at 4 ppm: dose rate 4 ppm; for pest or weed control at 16 ppm: dose rate 16 ppm; for pest or weed control at 64 ppm: dose rate 64 ppm; for pest or weed control at 256 ppm: dose rate 256 ppm
# From the text: The fungicides are applied in single treatments, or in a combination comprising a benzophenone of formula I and a compound selected from the classes (A) through (E) as defined above. The compounds are applied in form of an aqueous spray mix obtained from concentrated formulation or the technical material.
# as §2, §3, §4, §5, §6, §7, §8, §9
# Erysiphe cichoracearum = test: Greenhouse test, 4 day residual, Erysiphe cichoracearum on cucumbers (Examples 6, 11, 14); conditions: Golovinomyces cichoracearum, 96 h, read-out: Observed Efficacy; for pest or weed control at 0.4 ppm: dose rate 0.4 ppm; for pest or weed control at 2 ppm: dose rate 2 ppm; for pest or weed control at 10 ppm: dose rate 10 ppm; for pest or weed control at 50 ppm: dose rate 50 ppm
# Experimental: as §1, §2, §3, §4
# (§10) For inoculation of powdery mildew disease, plants are set up on greenhouse benches with bottom watering mats and inoculated by dusting them with conidia from infected plants. Between inoculation and treatment for curative evaluations and between treatment and inoculation for residual evaluations, plants are maintained in the greenhouse with bottom watering.
# as §6, §7, §8, §9
# Fungicidal Efficacy of the Mixture of BP-4+Other Fungicides (4 Day Residual) Against Erysiphe cichoracearum on Cucumbers
# Fungicidal Efficacy of the Mixture of BP4+Other Fungicides (4 Day Residual) Against Erysiphe cichoracearum on Cucumbers
# Pyrenophora teres = test: Greenhouse test, 4 day residual, Pyrenophora teres on barley (Examples 13, 16); conditions: 96 h, single product, read-out: Observed Efficacy; for pest or weed control at 0.4 ppm: dose rate 0.4 ppm; for pest or weed control at 2 ppm: dose rate 2 ppm; for pest or weed control at 10 ppm: dose rate 10 ppm; for pest or weed control at 50 ppm: dose rate 50 ppm
# Experimental: as §1, §2, §3, §4, §5, §6, §7, §8, §9
# Fungicidal Efficacy of the Mixture of BP4+Other Fungicides (4 Day Residual) Against Pyrenophora teres on barley
# Fungicidal Efficacy of the Mixture of BP4+Other Fungicides (4 Day Residual) Against Pyrenophora teres on Barley
# [1] = test system: Blumeria graminis f. sp. tritici; test: Greenhouse test, 2 day curative, Blumeria graminis f. sp. tritici on wheat (Example 17); conditions: Table XVII, single compound
# Experimental: as §1, §2, §3, §4, §10, §6, §7, §8, §9
# Fungicidal Efficacy of the Mixture of Different Benzophenones+Metconazole (2 Day Curative) Against Blumeria graminis f. sp. tritici on Wheat
# Uncinula necator = test: Greenhouse test, 1 day residual, Uncinula necator on vines (Example 18); conditions: Table XVIII, single compound
# Experimental: as §1, §2, §3, §4, §10, §6, §7, §8, §9
# Fungicidal Efficacy of the Mixture of BP-4+AP-4 (1 Day Residual) Against Uncinula necator on Vines
# [2] = Example 15, Table XV, single product, wheat
# [3] = Example 14, Table XIV, single product, cucumbers
# [4] = Table XI, single compound or product
smiles,measurement,setting,value
CC(C1CC1)C(O)(Cn1cncn1)c1ccc(Cl)cc1 (stereo not drawn) [Cyproconazole],pest or weed control at 0.4 ppm,Puccinia recondita; [2],58%
"COc1cc(C)c(C(=O)c2c(C)ccc(Br)c2OC)c(OC)c1OC [BP-4, 3-bromo-2′,6-dimethyl-2,4′,5′,6′-tetramethoxybenzophenone]",pest or weed control at 4 ppm,Leptosphaeria nodorum; Table VIII,0%
same,pest or weed control at 16 ppm,Leptosphaeria nodorum; Table VIII,0%
same,pest or weed control at 64 ppm,Leptosphaeria nodorum; Table VIII,14%
same,pest or weed control at 256 ppm,Leptosphaeria nodorum; Table VIII,34%
same,pest or weed control at 4 ppm,Leptosphaeria nodorum; Table X,0%
same,pest or weed control at 16 ppm,Leptosphaeria nodorum; Table X,10%
same,pest or weed control at 64 ppm,Leptosphaeria nodorum; Table X,18%
same,pest or weed control at 256 ppm,Leptosphaeria nodorum; Table X,44%
same,pest or weed control at 0.4 ppm,Erysiphe cichoracearum; [3],0%
same,pest or weed control at 2 ppm,Erysiphe cichoracearum; [3],0%
same,pest or weed control at 10 ppm,Erysiphe cichoracearum; [3],13%
same,pest or weed control at 50 ppm,Erysiphe cichoracearum; [3],97%
same,pest or weed control at 1 ppm,"Erysiphe cichoracearum; Table VI, single compound, dose rate 1 ppm",1%
same,pest or weed control at 4 ppm,"Erysiphe cichoracearum; Table VI, single compound, dose rate 4 ppm",6%
same,pest or weed control at 16 ppm,"Erysiphe cichoracearum; Table VI, single compound, dose rate 16 ppm",51%
same,pest or weed control at 64 ppm,"Erysiphe cichoracearum; Table VI, single compound, dose rate 64 ppm",100%
same,pest or weed control at 0.4 ppm,Erysiphe cichoracearum; [4],0%
same,pest or weed control at 2 ppm,Erysiphe cichoracearum; [4],2%
same,pest or weed control at 10 ppm,Erysiphe cichoracearum; [4],55%
same,pest or weed control at 50 ppm,Erysiphe cichoracearum; [4],96%
same,pest or weed control at 0.4 ppm,"Pyrenophora teres; Example 13, Table XIII",0%
same,pest or weed control at 2 ppm,"Pyrenophora teres; Example 13, Table XIII",0%
same,pest or weed control at 10 ppm,"Pyrenophora teres; Example 13, Table XIII",34%
same,pest or weed control at 50 ppm,"Pyrenophora teres; Example 13, Table XIII",58%
same,pest or weed control at 0.4 ppm,"Pyrenophora teres; Example 16, Table XVI",0%
same,pest or weed control at 2 ppm,"Pyrenophora teres; Example 16, Table XVI",0%
same,pest or weed control at 10 ppm,"Pyrenophora teres; Example 16, Table XVI",0%
same,pest or weed control at 50 ppm,"Pyrenophora teres; Example 16, Table XVI",11%
same,Observed Efficacy,[1]; dose rate 0.67 ppm,9%
same,Observed Efficacy,[1]; dose rate 2 ppm,27%
same,Observed Efficacy,[1]; dose rate 6 ppm,42%
same,Observed Efficacy,[1]; dose rate 18 ppm,78%
same,Observed Efficacy,[1]; dose rate 54 ppm,92%
same,pest or weed control at 0.4 ppm,Puccinia recondita; [2],0%
same,pest or weed control at 2 ppm,Puccinia recondita; [2],0%
same,pest or weed control at 10 ppm,Puccinia recondita; [2],6%
same,pest or weed control at 50 ppm,Puccinia recondita; [2],12%
same,pest or weed control at 4 ppm,"Puccinia recondita; Table IX, single compound",6%
same,pest or weed control at 16 ppm,"Puccinia recondita; Table IX, single compound",4%
same,pest or weed control at 64 ppm,"Puccinia recondita; Table IX, single compound, dose rate 64 ppm",16%
same,pest or weed control at 256 ppm,"Puccinia recondita; Table IX, single compound, dose rate 256 ppm",38%
same,pest or weed control at 4 ppm,"Puccinia recondita; Table VII, single compound",0%
same,pest or weed control at 16 ppm,"Puccinia recondita; Table VII, single compound",0%
same,pest or weed control at 0.4 ppm,"Puccinia recondita; Table XII, single compound",2%
same,pest or weed control at 2 ppm,"Puccinia recondita; Table XII, single compound",7%
same,pest or weed control at 10 ppm,"Puccinia recondita; Table XII, single compound",10%
same,pest or weed control at 50 ppm,"Puccinia recondita; Table XII, single compound",31%
same,Observed Efficacy,Uncinula necator; dose rate 0.25 ppm,0%
same,Observed Efficacy,Uncinula necator; dose rate 0.5 ppm,21%
same,Observed Efficacy,Uncinula necator; dose rate 1 ppm,28%
same,Observed Efficacy,Uncinula necator; dose rate 2 ppm,9%
same,Observed Efficacy,Uncinula necator; dose rate 4 ppm,43%
same,Observed Efficacy,Uncinula necator; dose rate 8 ppm,42%
